# Bridge positions count the residues as written; N and C are the ends. Square brackets hold non-standard residues; d marks the D form. Peptide text beside a SMILES is read from it. * marks the point of attachment. Myristoyl = CCCCCCCCCCCCCC(=O)*; Orn = NCCC[C@H](N)C(=O)O; Dab = NCC[C@H](N)C(=O)O; Dap = NC[C@H](N)C(=O)O
# How the values were obtained:
# [1] = tested on: Acinetobacter baumannii 1104008; assay: microbe, parasite or virus in culture; assay type: cell-based
# Experimental: (§1) All MIC assays were performed two independent times (n = 2) in 96‐well plates using a broth micro‐dilution method. The lowest concentration of that inhibited visible microbial growth was recorded as the MIC value.
# (§2) For most of bacterial strains, overnight cultures were diluted 5000‐fold in LB broth. For E. faecium and S. aureus, overnight cultures were diluted 1000‐ and 10000‐fold in LB broth, respectively. 100 µL of diluted cells was mixed with 100 µL of LB broth containing each peptide ranging from 64 to 0.125 µg mL^−1 at 2‐fold serial dilutions.
# [2] = tested on: Klebsiella pneumoniae CRKP 5452; assay: microbe, parasite or virus in culture; assay type: cell-based
# Experimental: as §1, §2
# [3] = tested on: Staphylococcus aureus USA300; assay: microbe, parasite or virus in culture; assay type: cell-based
# Experimental: as §1, §2
# [4] = tested on: Streptococcus pyogenes ATCC 19615; assay: microbe, parasite or virus in culture; assay type: cell-based
# Experimental: as §1, §2
# [5] = tested on: Candida albicans ATCC 10231; assay: MIC assay (YPD broth); assay type: cell-based
# Experimental: as §1
# (§3) For fungal strains, overnight cultures were diluted 2000‐fold in YPD broth. 100 µL of diluted cells was mixed with 100 µL of YPD broth containing each peptide ranging from […] 64 to 0.125 µg mL^−1 at 2‐fold serial dilutions.
# HeLa cells = assay: Cytotoxicity assay (CCK-8); assay type: cell-based, human; settings: 48 h
# Experimental: The cytotoxicity of each synAQU peptide was assessed using a cell counting kit‐8 (CCK‐8) assay. HeLa cells were first seeded in a 96‐well flat‐bottom microtiter plate with a density of ∼5000 cells per well and incubated in the DMEM medium supplemented with 10% FBS at 37 °C with 5% CO2 for 24 h. […] All cytotoxicity experiments were done in triplicate (n = 3) and repeated two independent times (n = 2).
# [6] = tested on: four Gram-negative bacteria, four Gram-positive bacteria, and one fungal pathogen; assay: Initial antimicrobial assay of 17 synAQUs; assay type: cell-based; settings: MIC up to 64 µg mL^−1, Figure 3a
# Experimental: as §1, §2, §3
# Escherichia coli DH5α = assay: MIC assay (broth micro-dilution); assay type: cell-based; settings: Table S11; LB broth, 37 °C, 16 h, n = 2
# Experimental: as §1, §2
# Shigella Castellani LXX = assay: MIC assay (broth micro-dilution); assay type: cell-based; settings: Table S11; LB broth, 37 °C, 16 h, n = 2
# Experimental: as §1, §2
# [7] = tested on: Acinetobacter baumannii ATCC 17978; assay: microbe, parasite or virus in culture; assay type: cell-based; settings: ATCC 17978, 16 h
# Experimental: as §1, §2
# [8] = tested on: Acinetobacter baumannii ATCC 19606; assay: microbe, parasite or virus in culture; assay type: cell-based; settings: ATCC 19606, 16 h
# Experimental: as §1, §2
# [9] = tested on: Acinetobacter baumannii P53; assay: microbe, parasite or virus in culture; assay type: cell-based; settings: Table S11; LB broth, 37 °C, 16 h, n = 2
# Experimental: as §1, §2
# Enterococcus faecalis 26 = assay: microbe, parasite or virus in culture; assay type: cell-based; settings: 26, 16 h
# Experimental: as §1, §2
# Enterococcus faecalis 28 = assay: microbe, parasite or virus in culture; assay type: cell-based; settings: 28, 16 h
# Experimental: as §1, §2
# [10] = tested on: Enterococcus faecalis ATCC 29212; assay: microbe, parasite or virus in culture; assay type: cell-based; settings: ATCC 29212, 16 h
# Experimental: as §1, §2
# [11] = tested on: Enterococcus faecium 35682; assay: microbe, parasite or virus in culture; assay type: cell-based; settings: Table S11; LB broth, 37 °C, 16 h, n = 2
# Experimental: as §1, §2
# [12] = tested on: Klebsiella pneumoniae ATCC 13883; assay: microbe, parasite or virus in culture; assay type: cell-based; settings: ATCC 13883, 16 h
# Experimental: as §1, §2
# [13] = tested on: Klebsiella pneumoniae CRKP HS11286; assay: microbe, parasite or virus in culture; assay type: cell-based; settings: CRKP HS11286, 16 h
# Experimental: as §1, §2
# [14] = tested on: Klebsiella pneumoniae NCTC 5056; assay: microbe, parasite or virus in culture; assay type: cell-based; settings: NCTC 5056, 16 h
# Experimental: as §1, §2
# [15] = tested on: Pseudomonas aeruginosa ATCC 9027; assay: microbe, parasite or virus in culture; assay type: cell-based; settings: ATCC 9027, 16 h
# Experimental: as §1, §2
# [16] = tested on: Pseudomonas aeruginosa PAO1; assay: microbe, parasite or virus in culture; assay type: cell-based; settings: Table S11; LB broth, 37 °C, 16 h, n = 2
# Experimental: as §1, §2
# [17] = tested on: Salmonella enterica ATCC 14028; assay: microbe, parasite or virus in culture; assay type: cell-based; settings: ATCC 14028, 16 h
# Experimental: as §1, §2
# [18] = tested on: Salmonella typhimurium LXX; assay: microbe, parasite or virus in culture; assay type: cell-based; settings: murium LXX, 16 h
# Experimental: as §1, §2
# [19] = tested on: Staphylococcus aureus ATCC 25923; assay: microbe, parasite or virus in culture; assay type: cell-based; settings: ATCC 25923, 16 h
# Experimental: as §1, §2
# [20] = tested on: Staphylococcus aureus ATCC 6538; assay: microbe, parasite or virus in culture; assay type: cell-based; settings: ATCC 6538, 16 h
# Experimental: as §1, §2
# [21] = tested on: Staphylococcus aureus Newman; assay: microbe, parasite or virus in culture; assay type: cell-based; settings: Newman, 16 h
# Experimental: as §1, §2
# [22] = tested on: Streptococcus mutans ATCC 25175; assay: microbe, parasite or virus in culture; assay type: cell-based; settings: ATCC 25175, 16 h
# Experimental: as §1, §2
# [23] = tested on: Vibrio alginolyticus XSBZ14; assay: microbe, parasite or virus in culture; assay type: cell-based; settings: 16 h
# Experimental: as §1, §2
# [24] = tested on: Candida albicans ATCC 64550; assay type: cell-based; settings: ATCC 64550, 16 h
# Experimental: as §1, §3
# [25] = tested on: S. aureus USA300 Cls2A338stop; assay: MIC against telomycin-resistant mutant; assay type: cell-based; settings: Figure S127b, telomycin-resistant mutant
# Experimental: as §1, §2
# (§4) Overnight cultures S. aureus USA300 were diluted 10000‐fold in LB broth, and 100 µL of dilute cell suspension was added to 96‐well plates containing 100 µL serially diluted aquicidine C4, telomycin, and daptomycin (with 15 mM CaCl2). Overnight cultures K. pneumoniae CRKP5452 were diluted 5000‐fold in LB broth, and 100 µL of dilute cell suspension was added to 96‐well plates containing 100 µL serially diluted aquicidine L and colistin. After an incubation of 24 h at 37 °C, the MIC value was determined. […] The MIC value was recorded as described above, and the process was repeated daily for 21 days. Experiments were performed two independent times (n = 2).
# (§5) Single‐nucleotide polymorphisms (SNPs) for telomycin‐, daptomycin‐ or colistin‐resistant mutants were identified using SNIPPY by mapping DNBSEQ‐seq reads to the reference genome of S. aureus USA300 or K. pneumoniae CRKP5452.
# [26] = tested on: S. aureus USA300 MprFT345A; assay: MIC against daptomycin-resistant mutant; assay type: cell-based
# Experimental: as §1, §2, §4, §5
# [27] = Table S11, LB broth, 37 °C, 16 h, n = 2
molecule,measurement,setting,value
CCCCCCCCCCCCCC(=O)N[C@@H](CN)C(=O)N[C@@H]1C(=O)N[C@@H](CC(C)C)C(=O)N[C@@H](CO)C(=O)N[C@@H](CCN)C(=O)N[C@@H](CN)C(=O)N[C@@H](Cc2ccccc2)C(=O)N[C@@H]([C@@H](C)CC)C(=O)N[C@@H](CCCN)C(=O)N[C@@H](CC(N)=O)C(=O)N[C@@H](Cc2ccccc2)C(=O)O[C@@H]1C [synAQU5-C2] (Myristoyl-[Dap]TLS[Dab][Dap]FI[Orn]NF; ester 2-C),MIC (μg/mL) A. baumannii 1104008,"[1]; 1104008, 16 h",> 64 µg/mL
same,MIC (μg/mL) K. pneumoniae CRKP 5452,"[2]; CRKP 5452, 16 h",> 64 µg/mL
same,MIC (μg/mL) S. aureus USA300,"[3]; USA300, 16 h",> 64 µg/mL
same,MIC (μg/mL) S. pyogenes ATCC 19615,"[4]; ATCC 19615, 16 h",> 64 µg/mL
same,MIC (μg/mL) C. albicans ATCC 10231,"[5]; ATCC 10231, 16 h",> 64 µg/mL
same,MIC (μg/mL) Hela,HeLa cells,> 64 µg/mL
same,activity against all nine tested strains,[6],not active
CCCCCCCCCCCCCC(=O)N[C@@H](Cc1ccccc1)C(=O)N[C@@H](CCCN)C(=O)N[C@H]1CCCNC(=O)CNC(=O)[C@H](CCN)NC(=O)[C@@H](Cc2ccc(O)cc2)NC(=O)[C@H](CC(C)C)NC(=O)[C@H]([C@@H](C)CC)NC(=O)[C@@H](C(C)C)NC1=O [synAQU2-C3] (Myristoyl-F[Orn][Orn][dV]IL[dY][Dab]G; lactam 3-C),MIC Escherichia coli DH5α,Escherichia coli DH5α,> 64 µg/mL
same,MIC Shigella Castellani LXX,Shigella Castellani LXX,> 64 µg/mL
same,MIC Acinetobacter baumannii 1104008,[1]; [27],8 µg/mL
same,MIC Acinetobacter baumannii ATCC 17978,[7],4 µg/mL
same,MIC Acinetobacter baumannii ATCC 19606,[8],> 64 µg/mL
same,MIC Acinetobacter baumannii P53,[9],8 µg/mL
same,MIC Enterococcus faecalis 26,Enterococcus faecalis 26,8 µg/mL
same,MIC Enterococcus faecalis 28,Enterococcus faecalis 28,> 64 µg/mL
same,MIC Enterococcus faecalis ATCC 29212,[10],32 µg/mL
same,MIC Enterococcus faecium 35682,[11],8 µg/mL
same,MIC Klebsiella pneumoniae ATCC 13883,[12],> 64 µg/mL
same,MIC Klebsiella pneumoniae CRKP 5452,[2]; [27],> 64 µg/mL
same,MIC Klebsiella pneumoniae CRKP HS11286,[13],> 64 µg/mL
same,MIC Klebsiella pneumoniae NCTC 5056,[14],32 µg/mL
same,MIC Pseudomonas aeruginosa ATCC 9027,[15],> 64 µg/mL
same,MIC Pseudomonas aeruginosa PAO1,[16],32 µg/mL
same,MIC Salmonella enterica ATCC 14028,[17],> 64 µg/mL
same,MIC Salmonella typhimurium LXX,[18],> 64 µg/mL
same,MIC Staphylococcus aureus ATCC 25923,[19],16 µg/mL
same,MIC Staphylococcus aureus ATCC 6538,[20],16 µg/mL
same,MIC Staphylococcus aureus Newman,[21],> 64 µg/mL
same,MIC Staphylococcus aureus USA300,[3]; [27],> 64 µg/mL
same,MIC Streptococcus mutans ATCC 25175,[22],8 µg/mL
same,MIC Streptococcus pyogenes ATCC 19615,[4]; [27],2 µg/mL
same,MIC Vibrio alginolyticus XSBZ14,[23],16 µg/mL
same,MIC Candida albicans ATCC 10231,"[5]; Table S11, YPD broth, 30 °C, 16 h, n = 2",> 64 µg/mL
same,MIC Candida albicans ATCC 64550,[24],> 64 µg/mL
Daptomycin,antibacterial activity (MIC) S. aureus USA300,"[3]; Figure S127b, wild type",1 µg/mL
same,antibacterial activity (MIC) S. aureus USA300 Cls2A338stop,[25],1 µg/mL
same,antibacterial activity (MIC) S. aureus USA300 MprFT345A,"[26]; Figure S127b, daptomycin-resistant mutant",16 µg/mL
same,increase in MIC against resistant mutant compared to wild type,[26]; S. aureus USA300 MprF^T345A vs wild type,16 fold

# — publication PMC12677607, “Identification of a Pair of Linear or Cyclic Naturally Inspired Bifunctional Lipopeptide Antibiotics That Overcome Antimicrobial Resistance” (Advanced Science, 2025)
